In PubChem BioAssay AID2060504 (Molecular Pharmacology Branch, DTP, NCI, 2025):
Where “and” joins values, the source holds several entries; their conditions need not be identical. Equal values may be shown once.

Test system: 636577-100-R-J1-PDC complex spheroid viability
Test: Anticancer human tumor 636577-100-R-J1-PDC patient-derived endometrial adenocarcinoma cell line growth inhibition [GQUAD]
Conditions: for viability, T/C: stronger effect = lower value
From the text: DNA G-quadruplex Stabilizer Agents in Combinations in Complex Spheroids
A high-throughput screen of multi-cell type tumor spheroids was designed to identify active combinations of DNA G-quadruplex stabilizer agents and targeted small molecules. Complex spheroids include a stromal component modeled by human endothelial cells (HUVEC) and fibroblasts modeled by human mesenchymal stem cells (MSCs). The concentration ranges selected for each drug and investigational agent were based upon clinically achievable concentrations if the clinical Cmax of the agent was known.
Compounds. The drugs and investigational agents: pidnarulex (CX-5461; NSC782164), APTO-253 (NSC789042), BRACO-19 (NSC847499), peposertib (NSC802822), ceralasertib (NSC780249), elimusertib (NSC800525), camonsertib (NSC841442), AZD-1390 (NSC803789), olaparib (NSC753686), talazoparib (NSC767125), ART-558 (NSC835418), sotorasib (NSC818433), MRTX-1133 (NSC836407), SN-38 (NSC673596), topotecan (NSC609699), etoposide (NSC141540), doxorubicin (NSC123127), gemcitabine (NSC613327), 5-fluorouracil (NSC19893), paclitaxel (NSC125973), vemurafenib (NSC761431), panobinostat (NSC761190), R-306465 (JNJ-16241199; NSC773264), adavosertib (NSC754352), TP-3654 (NSC805149), carboplatin (NSC241240), KSQ-4279 (NSC840948), and staurosporine (NSC755774) were obtained from the National Cancer Institute (NCI) Developmental Therapeutics Program Chemical Repository (34). The FDA-approved anticancer drug set is available from the NCI Developmental Therapeutics Program. […] The stock solutions were prepared in dimethyl sulfoxide (DMSO, Sigma-Aldrich, St. Louis, MO, cat. D2650) at 800-fold the tested concentration and stored at -70 degrees C prior to their use. All drugs and investigational agents were tested over a range starting from a high concentration at or near the clinical Cmax and decreasing in half-log increments. If the clinical Cmax for an agent had not been determined, the highest concentration tested was 10 microM.
2.3 Cell Culture. All cells were maintained in an incubator at 37 degrees C and 5% CO2 with 95% humidity. The PDC lines were cultured according to standard operating procedures established by the NCI PDMR. All PDCs were thawed and cultured in Matrigel-coated flasks prepared with a working solution of 1X Ham's F-12 nutrient mix, without supplementation (Invitrogen, cat. 11765054), 100 U/mL penicillin-streptomycin (Invitrogen, cat. 15140122), and 2.5% Matrigel (Corning Inc., cat. 354248) for the first three passages. The 857933-349-R-J2-PDC line was cultured in 6C/Colon 1B media, which includes advanced DMEM/F-12 (Thermo Fisher Scientific, cat. 12634028), 10 mM HEPES (Thermo Fisher Scientific, cat. 15630080), 1X GlutaMAX supplement (Thermo Fisher Scientific, cat. 35050061), 0.1 mg/mL primocin (InvivoGen, cat. ant-pm-2), 10% defined fetal bovine serum, heat inactivated (HyClone Laboratories Inc., cat. SH30070.03HI), 50% L-WRN conditioned media (ATCC, cat. CRL-3276), 1.25 mM N-Acetyl-L-cysteine (Sigma-Aldrich, cat. A9165), 10 mM nicotinamide (Sigma-Aldrich, cat. N0636), 1X B-27 supplement (Thermo Fisher Scientific, cat. 17504044), 1X N-2 supplement (Thermo Fisher Scientific, cat. 17502048), 10 microM Y-27632 dihydrochloride (Tocris Bioscience, cat. 1254), and 50 ng/mL human EGF recombinant protein (Thermo Fisher Scientific, cat. PHG0311). The 485176-168-R4-J1-PDC line was cultured in Panc media, which includes all 6C/Colon 1B media components plus 100 ng/mL human FGF-10 (Thermo Fisher Scientific, cat. 100-26), 500 nM SB-431542 (Selleckchem, cat. S1067), and gastrin (Tocris, cat. 3006).
[…]
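Further: viability read after seven days of drug exposure.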
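Wherever viability, T/C is given: luminescence signal used as a proxy for viable cells; 100% = DMSO vehicle control wells.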

Q: `Cc1[nH]c2ccccc2c1CCNCc1ccc(/C=C/C(=O)NO)cc1` + Cc1cnc(CNC(=O)c2c(=O)c3ccc(N4CCCN(C)CC4)nc3n3c2sc2ccccc23)cn1 was tested. Which IC50 (curve of first compound, second compound 0.0316 µM) did it give?
A: < 0.999 nM

Q: And the IC50 (curve of first compound, second compound 0.1 µM)?
A: < 0.999 nM

Q: What about the IC50 (curve of first compound, second compound 0.316 µM) of the same compound?
A: < 0.999 nM

Q: What about the IC50 (curve of first compound, second compound 1 µM) of the same compound?
A: < 0.999 nM

Q: And the IC50 (curve of first compound, second compound 3.16 µM)?
A: < 0.999 nM

Q: And the IC50 (curve of first compound, second compound 10 µM)?
A: < 0.999 nM

Q: And the viability, T/C (second compound 0.0316 µM, first compound 0.000999 µM)?
A: 49.7%

Q: And the viability, T/C (second compound 0.0316 µM, first compound 0.00316 µM)?
A: 28.9%

Q: And the viability, T/C (second compound 0.0316 µM, first compound 0.00999 µM)?
A: 20.8%

Q: And the viability, T/C (second compound 0.0316 µM, first compound 0.0316 µM)?
A: 12.3%

Q: What about the viability, T/C (second compound 0.0316 µM, first compound 0.0999 µM) of the same compound?
A: 6.33%

Q: What about the viability, T/C (second compound 0.0316 µM, first compound 0.316 µM) of the same compound?
A: 8.17%

Q: What about the viability, T/C (second compound 0.1 µM, first compound 0.000999 µM) of the same compound?
A: 32.3%

Q: What about the viability, T/C (second compound 0.1 µM, first compound 0.00316 µM) of the same compound?
A: 22.8%

Q: And the viability, T/C (second compound 0.1 µM, first compound 0.00999 µM)?
A: 24.6%

Q: And the viability, T/C (second compound 0.1 µM, first compound 0.0316 µM)?
A: 12.8%

Q: And the viability, T/C (second compound 0.1 µM, first compound 0.0999 µM)?
A: 6.63%

Q: And the viability, T/C (second compound 0.1 µM, first compound 0.316 µM)?
A: 8.31%

Q: And the viability, T/C (second compound 0.316 µM, first compound 0.000999 µM)?
A: 26.1%

Q: And the viability, T/C (second compound 0.316 µM, first compound 0.00316 µM)?
A: 24.2%

Q: And the viability, T/C (second compound 0.316 µM, first compound 0.00999 µM)?
A: 18.9%

Q: And the viability, T/C (second compound 0.316 µM, first compound 0.0316 µM)?
A: 13.2%

Q: And the viability, T/C (second compound 0.316 µM, first compound 0.0999 µM)?
A: 9.48%

Q: And the viability, T/C (second compound 0.316 µM, first compound 0.316 µM)?
A: 8.5%

Q: And the viability, T/C (second compound 1 µM, first compound 0.000999 µM)?
A: 21.1%

Q: And the viability, T/C (second compound 1 µM, first compound 0.00316 µM)?
A: 20.9%

Q: What about the viability, T/C (second compound 1 µM, first compound 0.00999 µM) of the same compound?
A: 18.7%

Q: What about the viability, T/C (second compound 1 µM, first compound 0.0316 µM) of the same compound?
A: 11.1%

Q: What about the viability, T/C (second compound 1 µM, first compound 0.0999 µM) of the same compound?
A: 8.25%

Q: And the viability, T/C (second compound 1 µM, first compound 0.316 µM)?
A: 8.1%

Q: And the viability, T/C (second compound 3.16 µM, first compound 0.000999 µM)?
A: 20.2%

Q: What about the viability, T/C (second compound 3.16 µM, first compound 0.00316 µM) of the same compound?
A: 23.3%

Q: What about the viability, T/C (second compound 3.16 µM, first compound 0.00999 µM) of the same compound?
A: 21.2%

Q: What about the viability, T/C (second compound 3.16 µM, first compound 0.0316 µM) of the same compound?
A: 12.3%

Q: And the viability, T/C (second compound 3.16 µM, first compound 0.0999 µM)?
A: 10.4%

Q: What about the viability, T/C (second compound 3.16 µM, first compound 0.316 µM) of the same compound?
A: 5.1%

Q: And the viability, T/C (second compound 10 µM, first compound 0.000999 µM)?
A: 22.6%

Q: What about the viability, T/C (second compound 10 µM, first compound 0.00316 µM) of the same compound?
A: 24.1%

Q: And the viability, T/C (second compound 10 µM, first compound 0.00999 µM)?
A: 20.1%

Q: And the viability, T/C (second compound 10 µM, first compound 0.0316 µM)?
A: 11.8%

Q: What about the viability, T/C (second compound 10 µM, first compound 0.0999 µM) of the same compound?
A: 12.2%

Q: What about the viability, T/C (second compound 10 µM, first compound 0.316 µM) of the same compound?
A: 0.15%

Q: How did the viability, T/C (compound 0.000999 µM) turn out when `Cc1[nH]c2ccccc2c1CCNCc1ccc(/C=C/C(=O)NO)cc1` was run?
A: 80% and 86.3% and 79%

Q: What about the viability, T/C (compound 0.00316 µM) of the same compound?
A: 57.6% and 53.8% and 75.6%

Q: What about the viability, T/C (compound 0.00999 µM) of the same compound?
A: 34.1% and 38.9% and 51.3%

Q: What about the viability, T/C (compound 0.0316 µM) of the same compound?
A: 15.3% and 17.2% and 16.4%

Q: And the viability, T/C (compound 0.0999 µM)?
A: 6.66% and 8% and 7.02%

Q: And the viability, T/C (compound 0.316 µM)?
A: 9.32% and 8.7% and 9.38%

Q: And the IC50 (curve of compound)?
A: 4.63 nM and 4.41 nM and 10.4 nM

Q: Which results are given for `O=C(c1cc(Cc2n[nH]c(=O)c3ccccc23)ccc1F)N1CCN(C(=O)C2CC2)CC1`?
A: viability, T/C (compound 0.0316 µM): 91.1% and 68.5%; viability, T/C (compound 0.1 µM): 89.5% and 65.9%; viability, T/C (compound 0.316 µM): 96.8% and 82.5%; viability, T/C (compound 1 µM): 62.5% and 63.3%; viability, T/C (compound 3.16 µM): 56.2% and 45.9%; viability, T/C (compound 10 µM): 37.6% and 29%; IC50 (curve of compound): 2510 nM and 2430 nM

Q: `C=CCn1c(=O)c2cnc(Nc3ccc(N4CCN(C)CC4)cc3)nc2n1-c1cccc(C(C)(C)O)n1` was tested. Which viability, T/C (compound 0.0316 µM) did it give?
A: 85% and 95.4% and 95.7%

Q: What about the viability, T/C (compound 0.1 µM) of the same compound?
A: 83.5% and 87.5% and 102%

Q: And the viability, T/C (compound 0.316 µM)?
A: 82.6% and 74.1% and 110%

Q: What about the viability, T/C (compound 1 µM) of the same compound?
A: 39.1% and 30.6% and 46.6%

Q: And the viability, T/C (compound 3.16 µM)?
A: 16.7% and 15% and 16.4%

Q: And the viability, T/C (compound 10 µM)?
A: 11.8% and 9.58% and 9.6%

Q: And the IC50 (curve of compound)?
A: 749 nM and 598 nM and 932 nM
